“And” between values parts separate entries of the source, which are not always exact repeats. Equal entries are not always repeated. Where two headings read alike, the source gives them in different places.
Key:
leukemia cell panel = test: NCI-60 five-dose assay, leukemia cell panel mean; assay type: cell-based, human; conditions: mean across the six leukemia cell lines
SR = test: NCI-60 five-dose assay; assay type: cell-based, human
CCRF-CEM = test: NCI-60 five-dose assay; assay type: cell-based, human
melanoma cell lines = test: NCI-60 five-dose assay, melanoma cell lines; assay type: cell-based, human; conditions: range over melanoma cell lines
Protocol: (§1) A number of our most promising compounds identified through preliminary cell viability testing (23c, 23d, 23f, 23h, 23l, 23m, 23n, 23o, 24f, 24l, 25n and 26n) were selected for NCI drug screening in the 60-cell-line panel. The panel includes nine subcategories based on cancer tissue types, which include leukemia, ovarian, central nervous system, breast, lung, prostate, skin, renal and colon cancer. The compounds were initially assessed in a one-dose assay at a fixed treatment concentration of 10 µM. The compounds selected for further investigation were progressed to a five-dose assay across the concentration ranges of 0.01, 0.1, 1, 10 and 100 µM [72]. The endpoints assessed in the screening protocol were GI50, TGI and LC50 [72].

HG-3 cells [1] = test: alamarBlue cell viability assay; conditions: for IC50: read-out: HG-3 IC50; for IC50 / viability at 10 µM: HG-3, 24 h
MOLT-4 = test: NCI-60 five-dose assay; assay type: cell-based, human; conditions: MOLT-4
HL-60(TB) = test: NCI-60 five-dose assay; assay type: cell-based, human; conditions: HL-60(TB)
K-562 = test: NCI-60 five-dose assay; assay type: cell-based, human; conditions: K-562
[2] = HPLC stability study in phosphate buffers; assay type: physicochemical
Method in brief: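 Compound stock (5 mg in 10 mL 80:20 acetonitrile–water) added to phosphate buffers at pH 4, 7.4 and 9 and held at 37 °C. Sampled over 24 h (0 min to 24 h) and analysed by C18 HPLC with UV detection at 254 nm; single experiments.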

[3] = test system: NCI 60 cancer cell line panel; test: NCI-60 five-dose assay, full-panel means; assay type: cell-based
Protocol: as §1

PGA-1 cells [4] = test: alamarBlue cell viability assay; conditions: for IC50: read-out: PGA-1 IC50; for viability at 10 µM: read-out: cell viability
HG-3 cells [5] = conditions: 10 µM
[6] = test system: HG-3 and PGA-1 cell lines; test: alamarBlue cell viability assay, mean of both CLL cell lines; assay type: cell-based, human; conditions: mean of HG-3 and PGA-1
RPMI-8226 = test: NCI-60 five-dose assay; assay type: cell-based, human; conditions: RPMI-8226
PGA-1 cells [7] = test: LDH cytotoxicity assay (CytoTox 96); assay type: cell-based; conditions: PGA-1, 10 µM, 24 h
From the text: (§2) The lactate dehydrogenase (LDH) assay is used to assess the membrane integrity of cells as a function of the cytoplasmic LDH released. The loss of cell membrane integrity (due to cytotoxic insult) is detectable through LDH release into the cell growth medium. The assay is initiated via the reduction in cellular co-factor NAD^+ to NADH catalyzed via the LDH enzyme. Newly formed NADH catalyzes the acidic reduction in iodonitrotetrazolium chloride (INT) to the highly colored formazan (red) (mediated via the diaphorase enzyme). […] At the 10-µM treatment concentration, mild to moderate cytotoxicity (19–47%) was observed. […] Cytotoxicity remained low to mild at 1 µM (4–18%) with 23a displaying the lowest LDH release (4%).
(§3) Following the treatment of the HG-3 and PGA-1 cells at 10 µM for 24 hr, the amount of LDH released was determined using an LDH assay kit from Promega (G1780). Cell lysis solution = 100% cell lysis and LDH release). Data are presented as % cell death at a concentration of 10 µM. Cells were treated with ethanoanthracene compounds 20a, 20f, 23a and 25n (1 µM and 10 µM) for 24 h. Values are shown as the mean of three independent experiments.
(§4) The cytotoxicity of the selected compounds 20a, 20f, 23a and 25n was determined using the CytoTox 96 non-radioactive cytotoxicity assay (Promega Corporation; 2800 Woods Hollow Road, Madison, WI, USA). CLL cells HG-3 and PGA-1 were incubated for 24 h and then treated with the selected compounds 20a, 20f, 23a and 25n at 10-µM and 1-µM concentrations, following the protocol outlined above in the cell viability assay. After 24 h, the lysis solution (10×) (20 µL) was added, and the cells were incubated for a further 1 h to ensure complete cell death. Supernatant (50 µL) was removed from each well and transferred to a clean 96-well plate. “Substrate mix” (50 µL) was added, and the plate was stored in the dark at 20 °C for 30 min. “Stop solution” (50 µL) was added to each well, and the absorbance at 490 nm was recorded using a Dynatech MR5000 plate reader; the % cell death was determined relative to the control cell lysis solution.

HG-3 cells [8] = test: LDH cytotoxicity assay (CytoTox 96); assay type: cell-based; conditions: 24 h
From the text: as §2, §3, §4

[9] = test system: chemosensitive MUTU-1 cell line; set-up: method as in PMID 31963567; conditions: chemosensitive MUTU-1 cell line ref 43; cited from earlier work
[10] = test system: healthy-donor peripheral blood mononuclear cells (PBMCs); test: Annexin V/PI assay in donor PBMCs; assay type: cell-based; conditions: 0.34 and 0.68 µM, 48 h
From the text: Whole blood samples from healthy donors (×5) were isolated, prepared and treated following the protocol previously described. The percentage of apoptosis observed in the treatment of isolated donor PBMCs with nitrovinylethanoanthracene 20a is concentration-dependent (Figure 11A). […] For ethanoanthracene 23a, the percentage of total apoptosis observed is illustrated in Figure 11B. […] The percentage of total apoptosis observed in the treatment of isolated donor PBMCs with the anthracene–chalcone 25n (normalized against vehicle 0.5% v/v DMSO) is illustrated in Figure 11C, and the dose-response behavior was also concentration-dependent, with compound 25n moderately toxic to healthy-donor PBMCs when treated at a 5.00 µM concentration (39%).
The human peripheral blood mononuclear cells (PBMCs) were generated as follows: peripheral blood was obtained from healthy donors (n = 2) after informed consent was received. The blood was then placed into a 50-mL falcon tube and diluted with an equal volume of phosphate-buffered saline (PBS). PBMCs were isolated using density-gradient centrifugation with LymphoPrep, as described previously. The cells were resuspended in RPMI media containing 10% FBS and 1% penicillin/streptomycin (P/S). The cells were counted using a haemocytometer and seeded into 96 well plates at a density of 1 × 10^5 cells/well (200 µL), and they were incubated at 37 °C for 1 h prior to compound treatment. The Annexin V/PI assay was used as a preliminary method of assessing the selective toxicity of the above compounds when compared with a previous alamarBlue cell viability assay in CLL cell lines. The assay was carried out as described above for the Annexin V/PI assay previously described above, and it was completed in triplicate on two independent days. Approval for this study was obtained from the School of Pharmacy and Pharmaceutical Sciences Trinity College Dublin Research Ethics Committee (2020-06-01-MS).

HG-3 cells [11] = test: alamarBlue viability after pan-caspase inhibitor Z-VAD-FMK pre-treatment; assay type: cell-based, human
From the text: Caspases (cysteine-aspartic proteases) are a family of aspartic acid residue-specific regulatory cysteine proteases that play an essential role in key cellular homeostatic processes such as inflammation and programmed cell death through the induction of apoptosis. To assess whether the biological activity of both major ethanoanthracene classes (nitrostyrene and chalcone-based) is caspase-dependent, compounds 20a and 23a (representing Series 1 and Series 4, respectively) (Figure 13) were selected for evaluation at treatment concentrations of 10 µM and 1 µM across both CLL cell lines using a caspase assay protocol. In HG-3 cells, pre-treatment with pan-caspase inhibitor (CI) Z-VAD-FMK [85] […] Little difference was found between cell viability responses (with or without the caspase inhibitor) at both 10-µM and 1-µM concentrations for compound 20a.
Compounds 20a and 23a (representing Series 1 and Series 4, respectively) were selected for evaluation at two treatment concentrations, 10 µM and 1 µM, across both HG-3 and PGA-1 CLL cells. […] The output was statistically analyzed using a one-way ANOVA with a Bonferroni multiple-comparison test. […]

PGA-1 cells [12] = test: Annexin V/PI apoptosis assay (FACS); assay type: cell-based, human
Protocol: (§5) The pro-apoptotic effects of selected nitrovinylethanoanthracene compounds 20a and 20f and anthracene chalcones 23a and 25n in HG-3 cells and PGA-1 cells was then investigated using FITC (fluorescein isothiocyanate), Annexin V/PI (propidium iodide) and FACS (fluorescence-activated cell sorting) analysis to characterize the mode of cellular death induced. Apoptosis was assessed as % total apoptosis (total of early (Q3) and late (Q2) apoptosis).
(§6) CLL cells PGA-1 and HG-3 (1 × 10^6 cells/mL) were treated at 37 °C with either the vehicle (1% (v/v) DMSO) or the ethanoanthracene compounds 20a, 20f, 23a and 25n (10 µM, 5 µM and 1 µM) for 48 h, following the protocol previously described. The cells were then harvested via centrifugation at 400× g in a temperature-controlled Sorvall centrifuge. The cells were rinsed with Ca^2+ Annexin-V-binding buffer (0.1 M HEPES, pH 7.4; 0.14 M NaCl; 25 mM CaCl2, 0.5 mL). The samples were resuspended in FITC Annexin V (diluted 1:33 in Ca^2+ Annexin V-binding buffer, 50 µL) and incubated for 10 min (on ice and protected from light). The samples were washed with Annexin-V-binding buffer and resuspended in a PI solution (0.5 µg/mL, 500 µL) and analyzed within 1 h using a BD Accuri C6 flow cytometer counting 10,000 cells using the FlowJo software Version 10 (FlowJo LLC, Ashland, OR, USA).

HG-3 cells [13] = test: Annexin V/PI apoptosis assay (FACS); assay type: cell-based, human
Protocol: as §5, §6

[14] = test system: chemoresistant DG-75 cell line; set-up: method as in PMID 31963567; conditions: chemoresistant DG-75 cell line ref 43; cited from earlier work
CLL patients = test system: CLL patients; set-up: method as in PMID 23291630, PMID 31160589; conditions: CLL patients ref 28,29; cited from earlier work
[15] = HG-3, 10 µM, lysis solution = 100%

## O=C(/C=C/C12c3ccccc3C(c3ccccc31)C1C(=O)NC(=O)C12)c1ccccn1 (stereo not shown) [Compound 23n]
Leukemia cell panel
  GI50: 1320 nM
SR
  GI50: 780 nM
CCRF-CEM
  GI50: 1440 nM
Melanoma cell lines
  GI50: 1120 to 2140 nM
HG-3 cells [1]
  IC50: 2390 nM
MOLT-4
  GI50: 2110 nM
HL-60(TB)
  GI50: 1020 nM
K-562
  GI50: 1370 nM
[2]; pH 4 buffer, 37 °C
  Half-life pH 4: 19 h
[2]; pH 4 buffer, 37 °C, 24 h, HPLC
  % remaining 24 h pH 4: 39% and 38.86%
[2]; pH 7.4 buffer, 37 °C
  Half-life pH 7.4: > 24 h
[2]; pH 7.4 buffer, 37 °C, 24 h, HPLC
  % remaining 24 h pH 7.4: 70% and 70.29%
[2]; pH 9.0
  decrease in compound concentration over 24 h: 11%
[2]; pH 9 buffer, 37 °C
  Half-life pH 9: > 24 h
[2]; pH 9 buffer, 37 °C, 24 h, HPLC
  % remaining 24 h pH 9: 89% and 88.59%
[3]
  CC50: 14800 nM
[3]; mean over NCI 60 cell line panel
  Mean TGI (MID TGI, total growth inhibition): 4570 nM
[3]; mean over NCI 60 cell line panel, read-out: Mean GI50 (MID GI50, full-panel mean-graph mid-point)
  GI50: 1660 nM
PGA-1 cells [4]; PGA-1, 24 h
  IC50: 1480 nM
HG-3 cells [5]
  cell viability: 2%
[6]
  IC50: 1940 nM
RPMI-8226
  GI50: 1220 nM

## O=C1C2C3c4ccccc4C(C=C[N+](=O)[O-])(c4ccccc43)C2C(=O)N1c1ccccc1 (stereo not shown) [Compound 20a]
PGA-1 cells [7]
  LDH release (cytotoxicity, % cell death): 9%
HG-3 cells [8]; [15]
  LDH release (cytotoxicity, % cell death): 33%
[9]
  IC50: 210 nM
[10]
  total apoptosis (toxicity) in healthy-donor PBMCs: 10–35%
HG-3 cells [1]; Homo sapiens
  IC50: 480 nM
HG-3 cells [1]; Homo sapiens, read-out: cell viability, HG-3, 10 µM, 24 h, vehicle = 100%
  viability at 10 µM: 14 to 43%
HG-3 cells [11]; HG-3, 1 µM compound
  decrease in cell viability after Z-VAD-FMK pre-treatment: 2%
HG-3 cells [11]; HG-3, 10 µM compound
  decrease in cell viability after Z-VAD-FMK pre-treatment: 10%
PGA-1 cells [12]; PGA-1, 1 µM
  total apoptosis (early Q3 + late Q2): 83%
PGA-1 cells [12]; PGA-1, 10 µM
  total apoptosis (early Q3 + late Q2): 87–97% and 97%
HG-3 cells [13]; HG-3, 1 µM
  total apoptosis (early Q3 + late Q2): 82%
HG-3 cells [13]; HG-3, 10 µM
  total apoptosis (early Q3 + late Q2): 82–95% and 95%
[14]
  IC50: 710 nM
PGA-1 cells [4]; Homo sapiens, 24 h
  IC50: 610 nM
  viability at 10 µM: 11%
[6]; Homo sapiens, CLL cell
  IC50: 550 nM

## CC1(C)CCC(CN2CCN(c3ccc(C(=O)NS(=O)(=O)c4ccc(NCC5CCOCC5)c([N+](=O)[O-])c4)c(Oc4cnc5[nH]ccc5c4)c3)CC2)=C(c2ccc(Cl)cc2)C1 [Venetoclax]
CLL patients
  overall response: 80%

## O=C1C2C3c4ccccc4C(C=C[N+](=O)[O-])(c4ccccc43)C2C(=O)N1CCCCCCN1C(=O)C2C3c4ccccc4C(C=C[N+](=O)[O-])(c4ccccc43)C2C1=O (stereo not shown) [Compound 20f]
PGA-1 cells [7]
  LDH release (cytotoxicity, % cell death): 19%
HG-3 cells [8]; HG-3, 1 µM
  LDH release (cytotoxicity, % cell death): 12%
HG-3 cells [8]; [15]
  LDH release (cytotoxicity, % cell death): 19%
HG-3 cells [1]; HG-3, IC50 ratio
  potency relative to fludarabine control: 165 fold
HG-3 cells [1]; Homo sapiens
  IC50: 170 nM
HG-3 cells [1]; Homo sapiens, read-out: cell viability
  viability at 10 µM: 14 to 43%
PGA-1 cells [12]; PGA-1, 1 µM
  total apoptosis (early Q3 + late Q2): 76%
PGA-1 cells [12]; PGA-1, 10 µM
  total apoptosis (early Q3 + late Q2): 87–97% and 88%
HG-3 cells [13]; HG-3, 1 µM
  total apoptosis (early Q3 + late Q2): 82%
HG-3 cells [13]; HG-3, 10 µM
  total apoptosis (early Q3 + late Q2): 82–95% and 82%
PGA-1 cells [4]; Homo sapiens, 24 h
  IC50: 350 nM
  viability at 10 µM: 17%
PGA-1 cells [4]; PGA-1, IC50 ratio
  potency relative to fludarabine control: 91 fold
